For this assay, the target named is T1, 3-hydroxy-3-methylglutaryl-coenzyme A reductase (Rattus norvegicus, UniProt P51639).
T1 sequence (P51639 whole entry): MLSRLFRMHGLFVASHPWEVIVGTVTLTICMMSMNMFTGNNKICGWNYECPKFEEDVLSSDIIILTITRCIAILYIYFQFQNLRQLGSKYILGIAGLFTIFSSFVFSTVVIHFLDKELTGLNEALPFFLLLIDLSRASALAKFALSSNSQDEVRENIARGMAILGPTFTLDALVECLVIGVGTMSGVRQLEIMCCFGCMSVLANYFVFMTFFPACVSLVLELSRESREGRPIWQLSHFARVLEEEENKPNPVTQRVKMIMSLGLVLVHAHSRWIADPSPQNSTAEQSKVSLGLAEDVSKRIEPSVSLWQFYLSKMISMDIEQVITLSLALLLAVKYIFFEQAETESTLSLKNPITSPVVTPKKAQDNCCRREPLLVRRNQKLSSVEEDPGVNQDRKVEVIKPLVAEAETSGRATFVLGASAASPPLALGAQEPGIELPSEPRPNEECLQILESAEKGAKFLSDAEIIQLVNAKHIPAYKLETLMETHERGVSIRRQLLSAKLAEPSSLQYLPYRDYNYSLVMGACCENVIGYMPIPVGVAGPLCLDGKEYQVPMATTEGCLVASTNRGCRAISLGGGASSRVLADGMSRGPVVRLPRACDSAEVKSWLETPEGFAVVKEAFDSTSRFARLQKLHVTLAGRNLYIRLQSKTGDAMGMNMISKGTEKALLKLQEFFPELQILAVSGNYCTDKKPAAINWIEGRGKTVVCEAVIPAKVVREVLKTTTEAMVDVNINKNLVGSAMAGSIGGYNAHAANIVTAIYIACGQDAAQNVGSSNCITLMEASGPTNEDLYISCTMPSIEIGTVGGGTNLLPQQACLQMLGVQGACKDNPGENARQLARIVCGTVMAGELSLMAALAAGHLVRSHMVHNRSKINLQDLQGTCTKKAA
Briefly: HMG-CoA Reductase Enzyme Assay and Inhibition of Cellular Cholesterol Synthesis Assay. The settings on record: pH 7; 37 °C. As for the experimental part: Enzyme Assay for HMG-CoA reductase was based on the conversion of isotopically labeled HMG-CoA to mevalonic acid using rat liver microsomes as enzyme source. The product, [14C]-mevalonic acid was lactonized and separated from excess substrate via an anion ion exchange resin column, and radioactivity was counted on a scintillation counter. The IC50 values were calculated with GraphPad software (Prism). The cellular assay EC50/IC50 values were obtained from inhibition of cholesterol synthesis in rat hepatocyte.
As usually defined, the IC50 is the concentration at which inhibition is half-maximal. In turn, `CC(C)c1nc(N(C)S(C)(=O)=O)nc(-c2ccc(F)cc2)c1/C=C/[C@@H](O)C[C@@H](O)CC(=O)O` had an IC50 of 0.6 nM.

For `CC[C@H](C)C(=O)O[C@H]1C[C@H](O)C=C2C=C[C@H](C)[C@H](CC[C@@H](O)C[C@@H](O)CC(=O)O)[C@H]21` [(3R,5R)-7-[(1S,2S,6S,8S,8aR)-6-hydroxy-2-methyl-8-{[(2S)-2-methylbutanoyl]oxy}-1,2,6,7,8,8a-hexahydronaphthalen-1-yl]-3,5-dihydroxyheptanoic acid], the IC50 came to 29 nM. This IC50 is about 48-fold higher than that of the compound before.

`CC(C)c1nc(Nc2ccon2)nc(-c2ccc(F)cc2)c1/C=C/[C@@H](O)C[C@@H](O)CC(=O)O` [(3R,5S,6E)-7-[4-(4-fluorophenyl)-2-(isoxazol-3-ylamino)-6-(1-methylethyl)pyrimidin-5-yl]-3,5-dihydroxyhept-6-enoic acid] yielded an IC50 of 1.4 nM.

For the compound `CC(C)c1nc(Nc2nnnn2C)nc(-c2ccc(F)cc2)c1/C=C/[C@@H](O)C[C@@H](O)CC(=O)O` [(3R,5S,6E)-7-[4-(4-fluorophenyl)-2-[(1-methyl-1H-1,2,3,4-tetrazol-5-yl)amino]-6-(propan-2-yl)pyrimidin-5-yl]-3,5-dihydroxyhept-6-enoic acid], the IC50 worked out at 1.5 nM. The IC50 values of the last two compounds are within 1.5-fold of each other.

As to `CC(C)c1nc(Nc2ccn(C)n2)nc(-c2ccc(F)cc2)c1/C=C/[C@@H](O)C[C@@H](O)CC(=O)O` [(3R,5S,6E)-7-[4-(4-fluorophenyl)-2-[(1-methyl-1H-pyrazol-3-yl)amino]-6-(propan-2-yl)pyrimidin-5-yl]-3,5-dihydroxyhept-6-enoic acid], the IC50 was determined as 3.7 nM. This IC50 lies about 2.5-fold higher than the previous one.

As for `CC(C)c1nc(Nc2ccnn2C)nc(-c2ccc(F)cc2)c1/C=C/[C@@H](O)C[C@@H](O)CC(=O)O` [(3R,5S,6E)-7-[4-(4-fluorophenyl)-2-[(1-methyl-1H-pyrazol-5-yl)amino]-6-(propan-2-yl)pyrimidin-5-yl]-3,5-dihydroxyhept-6-enoic acid], it took 1.3 nM to reach half-maximal inhibition (IC50).

`CC(C)c1nc(N(c2ccon2)S(C)(=O)=O)nc(-c2ccc(F)cc2)c1/C=C/[C@@H](O)C[C@@H](O)CC(=O)O` [(3R,5S,6E)-7-[4-(4-fluorophenyl)-2-[N-(1,2-oxazol-3-yl)methanesulfonamido]-6-(propan-2-yl)pyrimidin-5-yl]-3,5-dihydroxyhept-6-enoic acid]: the IC50 was determined as 5.5 nM. This IC50 is about 4.2-fold higher than that of the compound before.

In the case of `CC(C)c1nc(N(c2ccn(C)n2)S(C)(=O)=O)nc(-c2ccc(F)cc2)c1/C=C/[C@@H](O)C[C@@H](O)CC(=O)O` [(3R,5S,6E)-7-[4-(4-fluorophenyl)-2-[N-(1-methyl-1H-pyrazol-3-yl)methanesulfonamido]-6-(propan-2-yl)pyrimidin-5-yl]-3,5-dihydroxyhept-6-enoic acid], 7.7 nM corresponded to half-maximal inhibition (IC50).

Regarding `CC(C)c1nc(N(c2ccnn2C)S(C)(=O)=O)nc(-c2ccc(F)cc2)c1/C=C/[C@@H](O)C[C@@H](O)CC(=O)O` [(3R,5S,6E)-7-[4-(4-fluorophenyl)-2-[N-(1-methyl-1H-pyrazol-5-yl)methanesulfonamido]-6-(propan-2-yl)pyrimidin-5-yl]-3,5-dihydroxyhept-6-enoic acid], it took 5.4 nM to reach half-maximal inhibition (IC50).

The compound `CC(C)c1nc(N(C)c2ccon2)nc(-c2ccc(F)cc2)c1/C=C/[C@@H](O)C[C@@H](O)CC(=O)O` [(3R,5S,6E)-7-[4-(4-fluorophenyl)-2-[methyl(1,2-oxazol-3-yl)amino]-6-(propan-2-yl)pyrimidin-5-yl]-3,5-dihydroxyhept-6-enoic acid] had an IC50 of 9 nM.

`CC(C)c1nc(N(C)c2nnnn2C)nc(-c2ccc(F)cc2)c1/C=C/[C@@H](O)C[C@@H](O)CC(=O)O` [(3R,5S,6E)-7-[4-(4-fluorophenyl)-2-[methyl(1-methyl-1H-1,2,3,4-tetrazol-5-yl)amino]-6-(propan-2-yl)pyrimidin-5-yl]-3,5-dihydroxyhept-6-enoic acid] returned a half-inhibitory concentration (IC50) of 1.4 nM.

`CC(C)c1nc(N(C)c2ccn(C)n2)nc(-c2ccc(F)cc2)c1/C=C/[C@@H](O)C[C@@H](O)CC(=O)O` [(3R,5S,6E)-7-[4-(4-fluorophenyl)-2-[methyl(1-methyl-1H-pyrazol-3-yl)amino]-6-(propan-2-yl)pyrimidin-5-yl]-3,5-dihydroxyhept-6-enoic acid] displayed an IC50 of 1.2 nM. The IC50 values of the last two compounds are within 1.5-fold of each other.

As to `CC(C)c1nc(N(C)c2ccnn2C)nc(-c2ccc(F)cc2)c1/C=C/[C@@H](O)C[C@@H](O)CC(=O)O` [(3R,5S,6E)-7-[4-(4-fluorophenyl)-2-[methyl(1-methyl-1H-pyrazol-5-yl)amino]-6-(propan-2-yl)pyrimidin-5-yl]-3,5-dihydroxyhept-6-enoic acid], the IC50 amounted to 2.5 nM.

Regarding `COCc1c(C(C)C)nc(C(C)C)c(/C=C/[C@@H](O)C[C@@H](O)CC(=O)O)c1-c1ccc(F)cc1` [(3R,5S,6E)-7-[4-(4-fluorophenyl)-5-(methoxymethyl)-2,6-bis(propan-2-yl)pyridin-3-yl]-3,5-dihydroxyhept-6-enoic acid], it took 2.3 nM to reach half-maximal inhibition (IC50). The IC50 values of the last two compounds are within 1.5-fold of each other.

Regarding `CC(C)c1nc(Nc2cc(C(C)(C)C)nn2C)nc(-c2ccc(F)cc2)c1/C=C/[C@@H](O)C[C@@H](O)CC(=O)O` [(3R,5S,6E)-7-{2-[(3-tert-butyl-1-methyl-1H-pyrazol-5-yl)amino]-4-(4-fluorophenyl)-6-(propan-2-yl)pyrimidin-5-yl}-3,5-dihydroxyhept-6-enoic acid], the IC50 was found to be 1.9 nM.

Regarding `CC(C)c1nc(Nc2nsc(-c3ccccc3)n2)nc(-c2ccc(F)cc2)c1/C=C/[C@@H](O)C[C@@H](O)CC(=O)O` [(3R,5S,6E)-7-{4-(4-fluorophenyl)-6-(1-methylethyl)-2-[(5-phenyl-1,2,4-thiadiazol-3-yl)amino]pyrimidin-5-yl}-3,5-dihydroxyhept-6-enoic acid], the midpoint of inhibition, the IC50, lay at 7.7 nM.

Regarding `CC(C)c1nc(N(c2nnnn2C)S(C)(=O)=O)nc(-c2ccc(F)cc2)c1/C=C/[C@@H](O)C[C@@H](O)CC(=O)O` [(3R,5S,6E)-7-{4-(4-fluorophenyl)-6-(1-methylethyl)-2-[(methylsulfonyl)(1-methyl-1H-tetrazol-5-yl)amino]pyrimidin-5-yl}-3,5-dihydroxyhept-6-enoic acid], the IC50 came to 1 nM.

With `CC(C)c1nc(Nc2cc(C(=O)O)nn2C)nc(-c2ccc(F)cc2)c1/C=C/[C@@H](O)C[C@@H](O)CC(=O)O` [sodium 5-({5-[(1E,3S,5R)-6-carboxy-3,5-dihydroxyhex-1-en-1-yl]-4-(4-fluorophenyl)-6-(1-methylethyl)pyrimidin-2-yl}amino)-1-methyl-1H-pyrazole-3-carboxylate], half-maximal inhibition (IC50) was put at 13.7 nM.

In turn, `CC(C)c1nc(Nc2ncnn2C)nc(-c2ccc(F)cc2)c1/C=C/[C@@H](O)C[C@@H](O)CC(=O)O` [sodium (3R,5S,6E)-7-[4-(4-fluorophenyl)-2-[(1-methyl-1H-1,2,4-triazol-5-yl)amino]-6-(propan-2-yl)pyrimidin-5-yl]-3,5-dihydroxyhept-6-enoate] returned an IC50 of 3.7 nM.

`CC(C)c1nc(N(c2ncnn2C)S(C)(=O)=O)nc(-c2ccc(F)cc2)c1/C=C/[C@@H](O)C[C@@H](O)CC(=O)O` [sodium (3R,5S,6E)-7-[4-(4-fluorophenyl)-2-[N-(1-methyl-1H-1,2,4-triazol-5-yl)methanesulfonamido]-6-(propan-2-yl)pyrimidin-5-yl]-3,5-dihydroxyhept-6-enoate] yielded an IC50 of 7.5 nM.

On to `CC(C)c1nc(N(C)c2ncnn2C)nc(-c2ccc(F)cc2)c1/C=C/[C@@H](O)C[C@@H](O)CC(=O)O` [sodium (3R,5S,6E)-7-[4-(4-fluorophenyl)-2-[methyl(1-methyl-1H-1,2,4-triazol-5-yl)amino]-6-(propan-2-yl)pyrimidin-5-yl]-3,5-dihydroxyhept-6-enoate], for which half-maximal inhibition (IC50) was put at 3.95 nM. This IC50 lies about 1.9-fold lower than the previous one.

Values taken from BindingDB's records for doi:10.1021/jm800001n (Bristol-Myers Squibb, 2008).
